Here are results for 20 compounds from patent publication US20040029889A1, “Heteroaryl alkyl piperazine derivatives as fatty acid oxidation inhibitors” (priority 2000, published 2004).

The test system of series [1] is mitochondrial fatty acid oxidation using palmitoyl CoA as substrate. The series is described as follows: Palmitoyl CoA oxidation in isolated rat heart mitochondria. Format: biochemical. The note with it: 1-C14 palmitoyl CoA substrate, 15 min at 30° C., vs DMSO control; for Inhibition of mitochondrial fatty acid oxidation, % of Control, 50 μm (%): 50 μm compound; for Inhibition of mitochondrial fatty acid oxidation, % of Control, 100 μm (%): 100 μm compound. The protocol: Rat heart mitochondria were isolated by the method of Nedergard and Cannon (Methods in Enzymol. 55, 3, 1979).
Palmitoyl CoA oxidation—The Palmityl CoA oxidation was carried out in a total volume of 100 micro liters containing the following agents: 110 mM KCl, 33 mM Tris buffer at pH 8, 2 mM KPi, 2 MM MgCl2, 0.1 MM EDTA, 14.7 microM defatted BSA, 0.5 mM malic acid, 13 mM carnitine, 1 mM ADP, 52 micrograms of mitochondrial protein, and 16 microM 1-C14 palmitoyl CoA (Sp. Activity 60 mCi/mmole; 20 microCi/ml, using 5 microliters per assay). The compounds of this invention were added in a DMSO solution at the following concentrations: 100 microM, and 50 microM. In each assay, a DMSO control was used. After 15 min at 30° C., the enzymatic reaction was centrifuged (20,000 g for 1 min), and 70 microliters of the supernatant was added to an activated reverse phase silicic acid column (approximately 0.5 ml of silicic acid). The column was eluted with 2 ml of water, and 0.5 ml of the eluent was used for scintillation counting to determine the amount of C^14 trapped as C^14 bicarbonate ion.

A short description of series [2]: Metabolic stability in human liver S-9 fractions. The settings on record: % parent remaining after 30 min at 37 C divided by average % ranolazine remaining (57%), >1.2 better, 0.8-1.2 equivalent, <0.8 less stable than ranolazine. The format is in vitro ADME. The protocol: Metabolic Stability: As a measure of metabolic stability the compounds of this invention were incubated with human liver S-9 microsomal fractions. After, 30 minutes at 37 C, the amount of parent drug remaining was determined using LC-mass spec. The response factors for each compound was determined by establishing a standard curve and using an internal standard during the analysis of the samples. An average of five experiments for percentage of ranolazine remaining at the 30 minute time point is 57%. The compounds of this invention were assayed as described in the protocol below and the percentage of parent remaining was divided by the average % of ranolazine remaining (57%) affording a metabolic stability factor. A compound with a stability number greater than 1.2 has a better stability than ranolazine in the liver S-9 assay. A compound with a stability number between 1.2 and 0.8 has an equivalent stability in the liver S-9 assay.
The purpose of this experiment is to compare the percentages remaining for compounds of this invention with the percentage remaining for ranolazine after 30 minutes of incubation with human liver S9 fractions.
The following reagents were used; Potassium phosphate, 0.5M pH 7.4 (incubation buffer), kept at room temperature; 0.05M MgCl2 kept at 4° C.; β-Nicotinamide adenine dinucleotide phosphate, tetrasodium salt, reduced form (NADPH), 0.02M solution in water (˜16.6 mg/mL) from Sigma Lot # 79H7044 prepared on day of use. 1 mM of ranolazine or Compounds 43, 45, 47, 52, 70, 74, 76, 78, and 80 in ACN further diluted to obtain 100 μM in 10% ACN; Human S9 stock: 20 mg/mL from Gentest.
Incubation mixtures were prepared as follows:
Combine all components with incubation buffer and re-pipette 200 μL/tube+25 μL of the compound being tested along with 25 μL of S-9.
After 5 min of pre-incubation at 37° C., at 0 and 30 min after starting the reaction, a 50 μl aliquot of the incubation mixture was removed and added to 100 μL of 9:1 acetonitrile: methanol containing the internal standard.
The mixture was centrifuged and a 100 μL aliquot of the supernatant was diluted in 1 mL of solvent C (0.1% Formic Acid in water). Then samples were analyzed for change between the ratio of compound to internal standard at time zero and 30 minutes by LC/MS (injected 10 μL).
Samples were analyzed for the starting compounds and potential metabolite/s by LC/MS using an internal standard and an ODS-C18 column with a flow rate of 0.25 ml/min.

Structures are written as SMILES.

For the compound `Cc1cccc(C)c1NC(=O)CN1CCN(CC(O)COc2ccc3oc(-c4ccc(C(F)(F)F)cc4)nc3c2)CC1` (centres unmarked) [Compound 68, N-(2,6-dimethylphenyl)-2-(4-{2-hydroxy-3-[2-(4-trifluoromethyl-phenyl)-benzoxazol-5-yloxy]-propyl}-piperazin-1-yl)acetamide], the “Inhibition of mitochondrial fatty acid oxidation, % of Control, 50 μm (%)” value (“Inhibition … 50 μm (%)” for short) in series [1] worked out at 68%.
As to `Cc1nc2ccc(OCC(O)CN3CCN(CC(=O)Nc4c(C)cccc4C)CC3)cc2s1` (centres unmarked) [Compound 49, N-(2,6-dimethylphenyl)-2-{4-[2-hydroxy-3-(2-methyl-benzothiazol-6-yloxy)-propyl]-piperazin-1-yl}aceamide], the “Inhibition of mitochondrial fatty acid oxidation, % of Control, 100 μm (%)” value (“Inhibition … 100 μm (%)” for short) in series [1] is recorded as 3%.
On the same count and under the same terms, the figure for `Cc1nc2cc(OCC(O)CN3CCN(CC(=O)Nc4ccc(O)cc4)CC3)ccc2s1` (centres unmarked) [Compound 54, 2-{14-[2-hydroxy-3-(2-methyl-benzothiazol-5-yloxy)-propyl]-piperazin-1-yl}-N-(4-hydroxy-phenyl)acetamide] is 81%.
Take `Cc1cccc(C)c1NC(=O)CN1CCN(CC(O)COc2ccc3ncccc3c2)CC1` (centres unmarked) [Compound 78]: in series [1], the “Inhibition … 100 μm (%)” value turned out to be 42%. Besides, the “Liver S9 Stability Factor” value in series [2] is 0.6.
Consider `Cc1cccc(C)c1NC(=O)CN1CCN(CC(O)COc2cccnc2)CC1` (centres unmarked) [Compound 72, N-(2,6-dimethylphenyl)-2-{4-[2-hydroxy-3-(pyridin-3-yloxy)-propyl]-piperazin-1-yl}acetamide], for which the “Inhibition … 100 μm (%)” value in series [1] was 8%.
For `Cc1cccc(C)c1NC(=O)CN1CCN(CC(O)COc2nc3ccccc3s2)CC1` (centres unmarked) [Compound 43, 2-{4-[3-(benzothiazol-2-yloxy)-2-hydroxy-propyl]-piperazin-1-yl}-N-(2,6-dimethylphenyl)acetamide], the “Inhibition … 100 μm (%)” value in series [1] is 21%. Moreover, the “Liver S9 Stability Factor” value in series [2] was found to be 0.6.
For `Cc1cccc(C)c1NC(=O)CN1CCN(CC(O)COc2cccc3cnccc23)CC1` (centres unmarked) [Compound 76, N-(2,6-dimethylphenyl)-2-{4-[2-hydroxy-3-(isoquinolin-5-yloxy)-propyl]-piperazin-1-yl}acetamide] the same measures were 26% and 0.8.
With `Cc1cccc(C)c1NC(=O)CN1CCN(CC(O)CNc2nc3ccccc3o2)CC1` (centres unmarked) [Compound 82, 2-{4-[3-(benzoxazol-2-ylamino)-2-hydroxypropyl]piperazinyl}-N-(2,6-dimethylphenyl)acetamide], the “Inhibition … 100 μm (%)” value in series [1] is reported as 22%.
The same measure, in the same setting: the figure for `Cc1cccc(C)c1NC(=O)CN1CCN(CC(O)CNc2nc3ccccc3s2)CC1` (centres unmarked) [Compound 39, 2-{4-[3-(benzothiazol-2-ylamino)-2-hydroxypropyl]piperazinyl}-N-(2,6-dimethylphenyl)acetamide] is 27%.
With `Cc1cccc(C)c1NC(=O)CN1CCN(CC(O)COc2cnc3ccccc3n2)CC1` (centres unmarked) [Compound 70, N-(2,6-dimethylphenyl)-2-{4-[2-hydroxy-3-(quinoxalin-2-yloxy)-propyl]-piperazin-1-yl}acetamide], in series [2], the “Liver S9 Stability Factor” value turned out to be 0.1.
On to `Cc1nc2cc(OCC(O)CN3C(C)CN(CC(=O)Nc4c(C)cccc4C)CC3C)ccc2s1` (centres unmarked) [Compound 52, N-(2,6-dimethylphenyl)-2-{4-[2-hydroxy-3-(2-methyl-benzothiazol-5-yloxy)-propyl]-3,5-dimethyl-piperazine-1-yl}acetamide], for which the “Inhibition … 100 μm (%)” value in series [1] stood at 95%. Besides, in series [2], the “Liver S9 Stability Factor” value was determined as 0.5.
For `Cc1cccc(C)c1NC(=O)CN1CCN(CC(O)COc2ccnc3ccccc23)CC1` (centres unmarked) [Compound 74, N-(2,6-dimethylphenyl)-2-{4-[2-hydroxy-3-(quinolin-4-yloxy)-propyl]-piperazin-1-yl}acetamide] the same measures were 12% and 1.0.
Take `Cc1cccc(C)c1NC(=O)CN1CCN(CC(O)COc2cccc3[nH]c(C(N)=O)cc23)CC1` (centres unmarked) [Compound 46]: in series [1], the “Inhibition … 100 μm (%)” value stood at 61%. For the same compound, the “Liver S9 Stability Factor” value in series [2] was 1.1.
In the case of `Cc1cccc(C)c1NC(=O)CN1CCN(CC(O)COc2ccc3oc(-c4ccccc4)nc3c2)CC1` (centres unmarked) [Compound 60, N-(2,6-dimethylphenyl)-2-{4-[2-hydroxy-3-(2-phenyl-benzoxazol-5-yloxy)-propyl)-piperazin-1-yl}acetamide], the “Inhibition … 50 μm (%)” value in series [1] came to 61%.
Same read-out and setting: for `Cc1cccc(C)c1NC(=O)CN1CCN(CC(O)COc2ccc3oc(-c4cccc(C(F)(F)F)c4)nc3c2)CC1` (centres unmarked) [Compound 7, N-(2,6-dimethyl-phenyl)-2-(4-{2-hydroxy-3-[2-(3-trifluoromethylphenyl)benzoxazol-5-yloxy]-propyl}-piperazin-1-yl)acetamide] the value was 77%.
Turning to `Cc1ccc2ccc(OCC(O)CN3CCN(CC(=O)Nc4c(C)cccc4C)CC3)cc2n1` (centres unmarked) [Compound 80, N-(2,6-dimethylphenyl)-2-{4-[2-hydroxy-3-(2-methyl-quinolin-7-yloxy)-propyl]-piperazin-1-yl}acetamide], the “Inhibition … 100 μm (%)” value in series [1] worked out at 22%. In addition, the “Liver S9 Stability Factor” value in series [2] came to 0.5.
For `Cc1nc2cc(OCC(O)CN3CCN(CC(=O)Nc4c(C)cccc4C)CC3)ccc2s1` (centres unmarked) [Compound 45], the “Inhibition … 100 μm (%)” value in series [1] is reported as 87%. Further, the “Liver S9 Stability Factor” value in series [2] stood at 0.8.
For `Cc1cccc(C)c1NC(=O)CN1CCN(CC(O)COc2ccc3ncsc3c2)CC1` (centres unmarked) [Compound 47, 2-{4-[3-(benzothiazol-6-yloxy)2-hydroxy-propyl]-piperazin-1-yl}-N-(2,6-dimethylphenyl)-acetamide] the same measures were 70% and 1.5.
For `Cc1cccc(C)c1NC(=O)CN1CCN(CC(O)COc2cccc3nc(-c4ccccc4)sc23)CC1` (centres unmarked) [Compound 62], in series [1], the “Inhibition … 50 μm (%)” value came to 62%.
With `Cc1nc2cc(OCC(O)CN3CCN(CC(=O)Nc4c(C)cccc4C)C(=O)C3)ccc2s1` (centres unmarked) [Compound 64, N-(2,6-dimethylphenyl)-2-{4-[2-hydroxy-3-(2-methyl-benzothiazol-5-yloxy)-propyl]-2-oxo-piperazin-1-yl}acetamide], the “Inhibition … 100 μm (%)” value in series [1] is on record as 41%.
